Source: US9840508B2, “N-acyl-(3-substituted)-(8-methyl)-5,6-dihydro-[1,2,4]triazolo[4,3-a] pyrazines as selective NK-3 receptor antagonists, pharmaceutical composition, methods for use in NK-3 receptor-mediated disorders” (EUROSCREEN SA, priority 2013, dated 2017)

Legend:
human NK-3 receptor = human NK-3 receptor (Homo sapiens (Human), UniProt P29371); test: Aequorin functional assay with human NK-3 receptor (antagonist testing); assay type: cell-based; settings: CHO cells expressing human NK-3 receptor; agonist NKA at EC80 (3 nM); read-out: Functional assay: Aequorin assay with human NK-3 receptor hNK-3 - AEQ (antagonist IC50)
human NK-3 receptor, sequence (P29371 whole entry): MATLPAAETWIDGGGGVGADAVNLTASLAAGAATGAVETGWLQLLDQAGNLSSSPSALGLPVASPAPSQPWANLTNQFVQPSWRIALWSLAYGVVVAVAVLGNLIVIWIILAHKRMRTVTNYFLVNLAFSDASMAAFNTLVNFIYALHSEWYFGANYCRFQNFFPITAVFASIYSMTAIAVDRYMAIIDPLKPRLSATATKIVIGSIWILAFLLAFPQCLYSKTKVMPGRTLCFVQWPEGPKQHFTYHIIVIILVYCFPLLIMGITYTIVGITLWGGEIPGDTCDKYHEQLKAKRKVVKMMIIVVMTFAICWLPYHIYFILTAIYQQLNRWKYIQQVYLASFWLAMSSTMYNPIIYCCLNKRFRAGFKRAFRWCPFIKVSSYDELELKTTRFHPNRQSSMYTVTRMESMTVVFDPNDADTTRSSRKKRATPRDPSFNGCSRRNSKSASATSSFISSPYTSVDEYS
Procedure: Aequorin Assay with Human NK-3 Receptor
Changes in intracellular calcium levels are a recognized indicator of G protein-coupled receptor activity. The efficacy of compounds of the invention to inhibit NKA-mediated NK-3 receptor activation was assessed by an in vitro Aequorin functional assay. Chinese Hamster Ovary recombinant cells expressing the human NK-3 receptor and a construct that encodes the photoproteinapoaequorin were used for this assay. In the presence of the cofactor coelenterazine, apoaequorin emits a measurable luminescence that is proportional to the amount of intracellular (cytoplasmic) free calcium.
The antagonist activity of compounds of the invention is measured following pre-incubation (3 minutes) of the compound (at various concentrations) with the cells, followed by addition of the reference agonist (NKA) at a final concentration equivalent to the EC80 (3 nM) and recording of emitted light (FDSS 6000 Hamamatsu) over the subsequent 90-second period. The intensity of the emitted light is integrated using the reader software. Compound antagonist activity is measured based on the concentration-dependent inhibition of the luminescence response to the addition of Neurokinin A.
The IC50 values shown in Table 2 indicate that compounds of the invention are potent NK-3 antagonist compounds.

human NK-1 receptor = human NK-1 receptor (Homo sapiens (Human), UniProt P25103); test: Selectivity binding assay, human NK-1 ([3H] substance P); settings: CHO cell membranes; 2 nM [3H] substance P; read-out: hNK-1 (Ki)
human NK-1 receptor, sequence (P25103 whole entry): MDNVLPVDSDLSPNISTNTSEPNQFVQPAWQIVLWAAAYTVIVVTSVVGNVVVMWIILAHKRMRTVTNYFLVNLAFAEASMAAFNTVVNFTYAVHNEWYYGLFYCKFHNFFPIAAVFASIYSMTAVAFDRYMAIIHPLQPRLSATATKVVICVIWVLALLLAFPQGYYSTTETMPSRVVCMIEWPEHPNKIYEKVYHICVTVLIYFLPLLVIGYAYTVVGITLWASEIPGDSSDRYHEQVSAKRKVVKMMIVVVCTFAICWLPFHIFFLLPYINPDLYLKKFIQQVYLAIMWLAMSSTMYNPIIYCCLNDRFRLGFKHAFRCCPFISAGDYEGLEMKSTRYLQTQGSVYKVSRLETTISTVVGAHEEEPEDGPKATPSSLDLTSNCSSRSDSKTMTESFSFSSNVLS
Procedure: Selectivity of the compounds of the invention was determined over the other human NK receptors, namely NK-1 and NK-2 receptors.
The affinity of compounds of the invention for the NK-1 receptor was evaluated in CHO recombinant cells which express the human NK-1 receptor. Membrane suspensions were prepared from these cells. The following radioligand: [^3H] substance P (PerkinElmer Cat#NET111520) was used in this assay. Binding assays were performed in a 50 mM Tris/5 mM MnCl2/150 mM NaCl/0.1% BSA at pH 7.4. Binding assays consisted of 25 μl of membrane suspension (approximately 5 μg of protein/well in a 96 well plate), 50 μl of compound or reference ligand (Substance P) at increasing concentrations (diluted in assay buffer) and 2 nM [^3H] substance P. The plate was incubated 60 min at 25° C. in a water bath and then filtered over GF/C filters (Perkin Elmer, 6005174, presoaked in 0.5% PEI for 2 h at room temperature) with a Filtration unit (Perkin Elmer). The radioactivity retained on the filters was measured by using the TopCount-NXT reader (Packard). Competition curves were obtained for compounds of the invention and the concentrations of compounds which displaced 50% of bound radioligand (IC50) were determined and then apparent inhibition constant Ki values were calculated by the following equation: Ki=IC50/(1+[L]/KD) where [L] is the concentration of free radioligand and KD is its dissociation constant at the receptor, derived from saturation binding experiments (Cheng and Prusoff, 1973).

circulating LH levels = test: Castrated male rat model, circulating luteinizing hormone (LH), oral dosing; assay type: in vivo; settings: castrated male SD rat; single oral dose less than or equal to 30 mg/kg; p<0.05
Procedure: In vivo Assay to Assess Compound Activity in Rat (Oral Dosing)
The effect of compounds of the invention to inhibit luteinizing hormone (LH) secretion is determined by the following biological studies.
Castrated Male Rat Model to Assess the Effect of Compound of Invention on Circulating Levels of Luteinizing Hormone (LH)
In humans and rodents, castration is well-precedented to permit heightened, persistent GnRH signaling and consequent elevation of circulating LH. Thus, a castrated rat model is used to provide a broad index for measurement of LH inhibition as a marker of test compound inhibition of the GnRH signaling pathway.
Castrated adult male Sprague-Dawley (SD) rats (150-175 g) were purchased from Janvier (St Berthevin, France). All animals were housed 2 per cage in a temperature-controlled room (22±2° C.) and 50±5% relative humidity with a 12 hour/12 hour light/dark cycles (lights off at 6 h00 pm). The animals were allowed 3 weeks of postoperative recovery prior to study. Animals were handled on a daily basis. Standard diet and tap water were provided ad libitum. Animal cage litters were changed once a week. […]
After basal sampling (TO) a single dose of compounds of the invention or vehicle was administrated orally to rats. […] Serum LH levels were determined using radioimmunoassay kit from RIAZEN—Rat LH, Zentech (Liège, Belgium). […]

Structure (SMILES) | IC50 (human NK-3 receptor) [nM] | Ki (human NK-1 receptor) [nM] | Suppression of circulating LH levels (circulating LH levels)
C[C@@H]1c2nnc(-c3csc(C(F)(F)F)n3)n2CCN1C(=O)c1ccc(F)cc1 [Compound 3, (R)-(4-fluorophenyl)(8-methyl-3-(2-(trifluoromethyl)thiazol-4-yl)-5,6-dihydro-[1,2,4]triazolo[4,3-a]pyrazin-7(8H)-yl)methanone] | 20 | > 30000 | –
Cc1ccc(-c2nnc3n2CCN(C(=O)c2ccc(F)cc2)[C@@H]3C)o1 [Compound 1, (R)-(4-fluorophenyl)(8-methyl-3-(5-methylfuran-2-yl)-5,6-dihydro-[1,2,4]triazolo[4,3-a]pyrazin-7(8H)-yl)methanone] | 60 | > 30000 | significantly suppressed circulating LH levels
